Measured values: patent US20240228501A1, “IMIDAZOLE-CONTAINING CONDENSED RING DERIVATIVE, PREPARATION METHOD THEREFOR, AND APPLICATION THEREOF IN MEDICINE” (CHANGCHUN GENESCIENCE PHARMACEUTICAL CO., LTD., priority 2021, published 2024)

Target: T1, human NK-3 receptor (Homo sapiens, UniProt P29371)
T1 construct: expressed in transfected cells; host or cells: HEK293
T1 sequence (P29371 1-465): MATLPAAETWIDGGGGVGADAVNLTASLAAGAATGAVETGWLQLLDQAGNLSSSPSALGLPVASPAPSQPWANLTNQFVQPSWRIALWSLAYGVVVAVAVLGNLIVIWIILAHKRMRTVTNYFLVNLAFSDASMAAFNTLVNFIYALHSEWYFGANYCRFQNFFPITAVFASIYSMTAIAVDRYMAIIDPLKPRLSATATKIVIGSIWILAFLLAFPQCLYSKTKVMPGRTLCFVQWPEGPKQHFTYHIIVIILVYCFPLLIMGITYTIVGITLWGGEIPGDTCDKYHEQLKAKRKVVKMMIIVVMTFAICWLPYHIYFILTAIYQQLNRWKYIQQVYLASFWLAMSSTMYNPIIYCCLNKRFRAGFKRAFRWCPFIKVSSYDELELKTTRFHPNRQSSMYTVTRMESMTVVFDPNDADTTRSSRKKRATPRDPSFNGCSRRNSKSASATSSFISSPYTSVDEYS
Experiment: Antagonistic activity on human NK-3 receptor in human NK-3R/HEK293 stably transfected cells (Fluo-4, FLIPR, Neurokinin B as agonist)
Type: cell-based
Settings: human NK-3R/HEK293 cells
Description: Test Example 1: Determination of Activity of Compounds of the Present Invention on Human NK-3 Receptor
This method is used to determine antagonistic effects of the compounds of the present invention on the activity of human NK-3 receptor proteins expressed in cell lines stably transfected with human NK-3R/HEK293.
2.1 The cell lines stably transfected with human NK-3R/HEK293 were inoculated in a 384-well cell culture plate at a inoculation density of 12,000 cells/well/25 μL, and cultured at 37° C. and 5% CO2 overnight;
2.2 20× Component A was frozen and thawed to room temperature, diluted 2× with Assay Buffer to working concentration, and kept at room temperature for later use;
2.3 The cell culture plate was equilibrated at room temperature for 10 min, the culture medium was removed, and 20 μL of Assay Buffer and 20 μL of 2× Component A […] were added, followed by centrifugation at 200 g at room temperature for 3-5 sec, and incubation at 37° C. for 2 h;
2.4 The compound was diluted 3 times with DMSO in 384 PP_DMSO plate, and then 240 nl/well of the compound was transferred into a working plate with Echo 550, centrifugated at 200 g at room temperature for 1 min; 40 μl of Assay Buffer was added into the working plate, centrifugated at 200 g at room temperature for 1 min, and then fully mixed in an oscillator at 2500 rpm for 20 min, and then centrifugated at 200 g at room temperature for 1 min for later use;
2.5 2.5 nM Neurokinin B TFA (6×) was prepared from Assay Buffer, 50 uL of which was transferred onto 3657 plate for later use;
2.6 The cell culture plate was taken out and left to stand at room temperature for 10 min, then […] the compound diluted in step 2.4 was added into corresponding wells, and the cell culture plate was left to stand at 25° C. for 30 min; and
2.7 10 μL of the compound diluted in step 2.5 was added into the corresponding experimental wells with FLIPR Tetra, and data was collected.
The antagonistic activity of the compounds of the present invention on the human NK-3 receptor was determined through the above experiments, to obtain inhibition curves of the compounds of the present invention and determine concentrations (IC50) of the corresponding compounds that inhibit 50% of the reference agonist.

## Cc1nsc(-c2nc(N3C[C@@H](O)CC3=O)c3n2CCN(C(=O)c2ccc(F)cc2)[C@@H]3C)n1 [Compound 104, (S)-1-((R)-7-(4-fluorobenzoyl)-8-methyl-3-(3-methyl-1,2,4-thiadiazol-5-yl)-5,6,7,8-tetrahydroimidazo[1,5-a]pyrazin-1-yl)-4-hydroxypyrrolidin-2-one]
  IC50: 31 nM

## Cc1nsc(-c2nc(N3CCOCCC3=O)c3n2CCN(C(=O)c2ccc(F)cc2)[C@@H]3C)n1 [Compound 114, (R)-1-[7-(4-fluorobenzoyl)-8-methyl-3-(3-methyl-1,2,4-thiadiazol-5-yl)-5,6,7,8-tetrahydroimidazo[1,5-a]pyrazin-1-yl]-1,4-azepan-5-one]
  IC50: 28.7 nM

## CO[C@@H]1CC(=O)N(c2nc(-c3nc(C)ns3)n3c2[C@@H](C)N(C(=O)c2ccc(F)cc2)CC3)C1 [Compound 115, (R)-1-[(R)-7-(4-fluorobenzoyl)-8-methyl-3-(3-methyl-1,2,4-thiadiazol-5-yl)-5,6,7,8-tetrahydroimidazo[1,5-a]pyrazin-1-yl]-4-methoxypyrrolidin-2-one]
  IC50: 22.7 nM

## Cc1nsc(-c2nc(N3CCC(O)CC3=O)c3n2CCN(C(=O)c2ccc(F)cc2)[C@@H]3C)n1 (stereo partly drawn) [Compound 116, 1-[(R)-7-(4-fluorobenzoyl)-8-methyl-3-(3-methyl-1,2,4-thiadiazol-5-yl)-5,6,7,8-tetrahydroimidazo[1,5-a]pyrazin-1-yl]-4-hydroxypiperidin-2-one]
  IC50: 11.9 nM

## Cc1nsc(-c2nc(N3CCCCCC3=O)c3n2CCN(C(=O)c2ccc(F)cc2)[C@@H]3C)n1 [Compound 117]
  IC50: 72.5 nM

## C[C@@H]1c2c(N3CCCC3=O)nc(-c3nc(C(F)(F)F)cs3)n2CCN1C(=O)c1ccc(F)cc1 [Compound 118, (R)-1-(7-(4-fluorobenzoyl)-8-methyl-3-(4-(trifluoromethyl)thiazol-2-yl)-5,6,7,8-tetrahydroimidazo[1,5-a]pyrazin-1-yl)pyrrolidin-2-one]
  IC50: 51.7 nM

## C[C@@H]1c2c(N3C[C@H](O)CC3=O)nc(-c3nc(C(F)(F)F)cs3)n2CCN1C(=O)c1ccc(F)cc1 [Compound 120, (R)-1-((R)-7-(4-fluorobenzoyl)-8-methyl-3-(4-(trifluoromethyl)thiazol-2-yl)-5,6,7,8-tetrahydroimidazo[1,5-a]pyrazin-1-yl)-4-hydroxypyrrolidin-2-one]
  IC50: 18.8 nM

## Cc1nsc(-c2nc(N3CCNCC3=O)c3n2CCN(C(=O)c2ccc(F)cc2)[C@@H]3C)n1 [Compound 123, (R)-1-(7-(4-fluorobenzoyl)-8-methyl-3-(3-methyl-1,2,4-thiadiazol-5-yl)-5,6,7,8-tetrahydroimidazo[1,5-a]pyrazin-1-yl)piperazin-2-one]
  IC50: 23 nM

## Cc1nsc(-c2nc(N3CCCC3=O)c3n2CCN(C(=O)c2ccc(F)cc2C)[C@@H]3C)n1 [Compound 128, (R)-1-(7-(4-fluoro-2-methylbenzoyl)-8-methyl-3-(3-methyl-1,2,4-thiadiazol-5-yl)-5,6,7,8-tetrahydroimidazo[1,5-a]pyrazin-1-yl)pyrrolidin-2-one]
  IC50: 84.6 nM

## Cc1nsc(-c2nc(N3C[C@H](N)CC3=O)c3n2CCN(C(=O)c2ccc(F)cc2)[C@@H]3C)n1 [Compound 129]
  IC50: 42.5 nM

## CC(=O)N[C@@H]1CC(=O)N(c2nc(-c3nc(C)ns3)n3c2[C@@H](C)N(C(=O)c2ccc(F)cc2)CC3)C1 [Compound 132, N—{(R)-1-[(R)-7-(4-fluorobenzoyl)-8-methyl-3-(3-methyl-1,2,4-thiadiazol-5-yl)-5,6,7,8-tetrahydroimidazo[1,5-a]pyrazin-1-yl]-5-oxopyrrolidin-3-yl}acetamide]
  IC50: 16.1 nM

## CC(=O)O[C@@H]1CC(=O)N(c2nc(-c3nc(C)ns3)n3c2[C@@H](C)N(C(=O)c2ccc(F)cc2)CC3)C1 [Compound 133, (R)-1-[(R)-7-(4-fluorobenzoyl)-8-methyl-3-(3-methyl-1,2,4-thiadiazol-5-yl)-5,6,7,8-tetrahydroimidazo[1,5-a]pyrazin-1-yl]-5-oxopyrrolidin-3-ylacetate]
  IC50: 18.6 nM
